Values quoted from earlier work in patent US20190209502A1, “COMBINATION GEL FOR SEXUALLY TRANSMITTED INFECTIONS” (EVOFEM, INC., priority 2016, published 2019).

Test system: HIV
Conditions: compared with D or racemic lactic acid

## C[C@H](O)C(=O)O [L form of lactic acid, L-(+)-lactic acid]
  potency in inactivating HIV: more potent in inactivating HIV than D or racemic lactic acid
